Activity calls are given as the source filed them.
What was measured:
Caspase-3 = biological target: T1, Caspase-3 (Homo sapiens, UniProt P42574); assay type: functional;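 note: Dose-response selectivity test against caspase-3 for candidate inhibitors of sentrin-specific proteases (SENPs)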
T1 sequence (P42574 whole entry): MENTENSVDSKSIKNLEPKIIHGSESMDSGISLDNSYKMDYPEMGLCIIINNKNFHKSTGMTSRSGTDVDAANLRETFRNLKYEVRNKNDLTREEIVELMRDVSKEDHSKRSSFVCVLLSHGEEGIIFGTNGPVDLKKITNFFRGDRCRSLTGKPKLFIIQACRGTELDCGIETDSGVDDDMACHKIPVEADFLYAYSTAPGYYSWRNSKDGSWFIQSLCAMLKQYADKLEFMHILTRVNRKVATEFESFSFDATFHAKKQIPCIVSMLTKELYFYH

[1] = biological target: T2, Sentrin-specific protease 7 (Homo sapiens, UniProt Q9BQF6); assay type: functional;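 note: Luminescence-based dose-response confirmation of ultra-high-throughput screening hits, measuring inhibition of SENP7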
T2 sequence (Q9BQF6 whole entry): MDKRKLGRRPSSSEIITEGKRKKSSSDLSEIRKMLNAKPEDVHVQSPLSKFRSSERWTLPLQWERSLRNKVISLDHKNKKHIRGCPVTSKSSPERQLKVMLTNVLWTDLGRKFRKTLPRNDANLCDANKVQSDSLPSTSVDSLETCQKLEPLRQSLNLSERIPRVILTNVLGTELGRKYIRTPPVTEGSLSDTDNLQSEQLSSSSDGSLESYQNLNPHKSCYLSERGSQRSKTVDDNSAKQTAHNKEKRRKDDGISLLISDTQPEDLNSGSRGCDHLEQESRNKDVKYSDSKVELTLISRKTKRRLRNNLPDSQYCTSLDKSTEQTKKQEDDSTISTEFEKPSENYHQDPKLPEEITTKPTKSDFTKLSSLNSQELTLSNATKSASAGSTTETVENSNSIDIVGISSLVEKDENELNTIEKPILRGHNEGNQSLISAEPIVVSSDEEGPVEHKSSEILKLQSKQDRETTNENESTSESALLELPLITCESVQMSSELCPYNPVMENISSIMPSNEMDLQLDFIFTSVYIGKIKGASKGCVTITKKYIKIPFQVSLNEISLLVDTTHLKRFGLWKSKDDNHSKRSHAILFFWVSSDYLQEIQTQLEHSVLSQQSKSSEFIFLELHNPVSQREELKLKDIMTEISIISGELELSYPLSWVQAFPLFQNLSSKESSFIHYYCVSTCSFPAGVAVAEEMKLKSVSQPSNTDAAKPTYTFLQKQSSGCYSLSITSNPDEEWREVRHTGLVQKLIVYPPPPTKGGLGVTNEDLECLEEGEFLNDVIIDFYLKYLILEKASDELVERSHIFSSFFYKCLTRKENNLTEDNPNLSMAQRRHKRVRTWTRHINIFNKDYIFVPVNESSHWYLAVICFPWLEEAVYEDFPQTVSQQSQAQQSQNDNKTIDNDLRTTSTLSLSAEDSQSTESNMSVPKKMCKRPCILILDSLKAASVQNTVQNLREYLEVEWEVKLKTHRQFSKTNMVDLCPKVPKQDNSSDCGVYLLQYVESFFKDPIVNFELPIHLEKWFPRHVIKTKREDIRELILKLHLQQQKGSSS

[2] = biological target: T3, Sentrin-specific protease 6 (Homo sapiens, UniProt Q9GZR1); assay type: functional;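 note: Luminescence-based dose-response confirmatory assay of SENP6 inhibition, following up an ultra-high-throughput screen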
T3 sequence (Q9GZR1 whole entry): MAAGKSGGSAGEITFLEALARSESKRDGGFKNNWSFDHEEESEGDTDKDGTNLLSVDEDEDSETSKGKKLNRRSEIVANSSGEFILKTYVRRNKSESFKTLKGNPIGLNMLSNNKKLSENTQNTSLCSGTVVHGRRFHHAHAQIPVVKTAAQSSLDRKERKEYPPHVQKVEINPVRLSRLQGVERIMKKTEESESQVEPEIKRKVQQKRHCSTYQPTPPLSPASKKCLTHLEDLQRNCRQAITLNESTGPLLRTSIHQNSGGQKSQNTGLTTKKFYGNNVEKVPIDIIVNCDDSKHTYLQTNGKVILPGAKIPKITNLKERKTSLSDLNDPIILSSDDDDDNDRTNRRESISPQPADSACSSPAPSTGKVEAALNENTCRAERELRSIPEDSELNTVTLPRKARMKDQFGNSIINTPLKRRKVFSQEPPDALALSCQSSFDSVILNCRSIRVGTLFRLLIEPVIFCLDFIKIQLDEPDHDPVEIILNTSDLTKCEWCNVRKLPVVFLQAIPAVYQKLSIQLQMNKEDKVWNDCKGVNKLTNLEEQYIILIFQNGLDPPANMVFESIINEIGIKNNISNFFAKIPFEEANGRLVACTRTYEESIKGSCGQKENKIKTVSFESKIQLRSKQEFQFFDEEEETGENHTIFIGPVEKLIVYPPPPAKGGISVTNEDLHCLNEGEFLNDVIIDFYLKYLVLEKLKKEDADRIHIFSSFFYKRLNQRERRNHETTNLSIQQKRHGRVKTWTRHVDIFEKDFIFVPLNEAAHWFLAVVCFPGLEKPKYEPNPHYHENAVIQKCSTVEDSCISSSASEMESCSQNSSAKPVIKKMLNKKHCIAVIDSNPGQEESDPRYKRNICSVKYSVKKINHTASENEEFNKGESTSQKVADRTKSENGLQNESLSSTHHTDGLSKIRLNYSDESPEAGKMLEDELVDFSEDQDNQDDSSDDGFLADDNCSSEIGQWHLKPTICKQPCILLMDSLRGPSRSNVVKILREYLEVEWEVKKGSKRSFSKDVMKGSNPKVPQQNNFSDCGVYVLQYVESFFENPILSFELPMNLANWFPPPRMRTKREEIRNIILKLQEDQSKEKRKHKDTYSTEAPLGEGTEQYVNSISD

[3] = biological target: T4, Sentrin-specific protease 8 (Homo sapiens, UniProt Q96LD8); assay type: functional;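 note: luminescence read-out of SENP8 inhibition, dose-response confirmation following an ultra-high-throughput screen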
T4 sequence (Q96LD8 whole entry): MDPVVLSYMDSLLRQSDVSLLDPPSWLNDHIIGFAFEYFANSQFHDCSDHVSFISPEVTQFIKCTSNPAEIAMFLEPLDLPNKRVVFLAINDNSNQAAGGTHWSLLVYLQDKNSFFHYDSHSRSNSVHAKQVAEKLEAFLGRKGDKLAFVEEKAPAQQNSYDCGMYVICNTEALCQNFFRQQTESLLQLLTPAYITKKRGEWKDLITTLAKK

cells [4] = assay type: functional, cell-based
cells [5] = assay type: functional, cell-based; remark: listed apart in the source
Fatty acid synthase [6] = biological target: T5, Fatty acid synthase (Homo sapiens, UniProt P49327); assay: FAS thioesterase domain inhibitors, dose response, biochemical, endpoint fluorescence intensity, uHTS hits (AID 624327); assay type: functional;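 note: fluorescence from hydrolysis of an O-methyl fluorescein acyl ester substrate by the enzyme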
Fatty acid synthase [7] = biological target: T5, Fatty acid synthase; assay: FAS thioesterase domain inhibitors, dose response, biochemical, kinetic fluorescence intensity (AID 624326); assay type: functional;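 note: rate of fluorescence rise from hydrolysis of a fluorogenic O-methyl fluorescein ester substrate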
BJ [8] = assay: cytotoxicity toward BJ-TERT fibroblasts, dose response, cell-based, RAS-independent, luminescence (AID 1933); assay type: functional; settings: Homo sapiens
BJ [9] = assay: cells; assay type: functional, cell-based; settings: Homo sapiens
BJ [10] = assay: cytotoxicity toward BJ-TERT-LT-ST fibroblasts, dose response, cell-based, RAS-independent, luminescence (AID 1935); assay type: functional; settings: Homo sapiens;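 note: BJ fibroblasts immortalized with TERT plus LT and ST oncogenes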
[11] = cytotoxicity toward DRD oncogenic fibroblasts, dose response, cell-based, non-viral oncogenic, luminescence (AID 1934); assay type: functional; settings: Homo sapiens
[12] = cytotoxicity in HEK-293T cells, dose response, cytotoxicity control for BCR NF-kB inhibitor project, luminescence, B-cell screen hits (AID 489021); assay type: functional, cell-based;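 note: HEK-293T cells carrying an NF-kB luciferase reporter; cells exposed to compound for about 14 hours before viability readout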
cells [13] = assay type: functional, cell-based; remark: listed apart in the source
[14] = biological target: T6, Trace amine-associated receptor 1 (Homo sapiens, UniProt Q96RJ0); assay: Fluorescence-based cell-based high throughput dose response assay to identify agonists of the human trace amine associated receptor 1 (TAAR1).; assay type: functional
T6 sequence (Q96RJ0 whole entry): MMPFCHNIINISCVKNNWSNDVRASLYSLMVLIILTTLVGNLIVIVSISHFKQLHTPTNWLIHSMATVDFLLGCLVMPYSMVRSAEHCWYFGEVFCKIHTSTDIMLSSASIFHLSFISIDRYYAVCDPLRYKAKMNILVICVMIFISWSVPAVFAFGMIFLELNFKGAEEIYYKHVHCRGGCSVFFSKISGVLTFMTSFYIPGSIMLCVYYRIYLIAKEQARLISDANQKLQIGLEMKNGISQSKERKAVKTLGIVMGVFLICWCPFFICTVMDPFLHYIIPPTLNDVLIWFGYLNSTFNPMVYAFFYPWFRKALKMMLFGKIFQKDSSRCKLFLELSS

[15] = biological target: T6, Trace amine-associated receptor 1; assay: Counterscreen for agonists of the human trace amine associated receptor 1 (hTAAR1): Fluorescence-based cell-based high throughput dose response assay to identify hTAAR1 agonist that also desensitize TAAR1 receptor response.; assay type: functional
cells [16] = assay type: functional, cell-based; remark: listed apart in the source
[17] = inhibitors of intracellular T. cruzi replication, confirmation, NIH3T3 host cells, beta-gal luminescence (AID 2044); assay type: functional, cell-based;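 note: intracellular parasites grown in NIH/3T3 mouse fibroblasts as host cells; luminescent beta-galactosidase reporter signal from transgenic T. cruzi replicating inside host cells; inhibitors lower the luminescence signal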
[18] = cytotoxicity toward NIH3T3 fibroblasts, dose response, counter-screen, cell-based, ATP luminescence, mouse fibroblasts (AID 2010); assay type: functional;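 note: cells exposed to compound for about 90 hours before reading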
[19] = biological target: Induced myeloid leukemia cell differentiation protein Mcl-1 (Homo sapiens, UniProt Q07820); assay type: functional
[20] = HEp-2 cell cytotoxicity, dose response, cytotoxicity control for RSV inhibitor project, HTS (AID 2410); assay type: functional; settings: human respiratory syncytial virus

T5 sequence (P49327 whole entry, the tested form may be a part): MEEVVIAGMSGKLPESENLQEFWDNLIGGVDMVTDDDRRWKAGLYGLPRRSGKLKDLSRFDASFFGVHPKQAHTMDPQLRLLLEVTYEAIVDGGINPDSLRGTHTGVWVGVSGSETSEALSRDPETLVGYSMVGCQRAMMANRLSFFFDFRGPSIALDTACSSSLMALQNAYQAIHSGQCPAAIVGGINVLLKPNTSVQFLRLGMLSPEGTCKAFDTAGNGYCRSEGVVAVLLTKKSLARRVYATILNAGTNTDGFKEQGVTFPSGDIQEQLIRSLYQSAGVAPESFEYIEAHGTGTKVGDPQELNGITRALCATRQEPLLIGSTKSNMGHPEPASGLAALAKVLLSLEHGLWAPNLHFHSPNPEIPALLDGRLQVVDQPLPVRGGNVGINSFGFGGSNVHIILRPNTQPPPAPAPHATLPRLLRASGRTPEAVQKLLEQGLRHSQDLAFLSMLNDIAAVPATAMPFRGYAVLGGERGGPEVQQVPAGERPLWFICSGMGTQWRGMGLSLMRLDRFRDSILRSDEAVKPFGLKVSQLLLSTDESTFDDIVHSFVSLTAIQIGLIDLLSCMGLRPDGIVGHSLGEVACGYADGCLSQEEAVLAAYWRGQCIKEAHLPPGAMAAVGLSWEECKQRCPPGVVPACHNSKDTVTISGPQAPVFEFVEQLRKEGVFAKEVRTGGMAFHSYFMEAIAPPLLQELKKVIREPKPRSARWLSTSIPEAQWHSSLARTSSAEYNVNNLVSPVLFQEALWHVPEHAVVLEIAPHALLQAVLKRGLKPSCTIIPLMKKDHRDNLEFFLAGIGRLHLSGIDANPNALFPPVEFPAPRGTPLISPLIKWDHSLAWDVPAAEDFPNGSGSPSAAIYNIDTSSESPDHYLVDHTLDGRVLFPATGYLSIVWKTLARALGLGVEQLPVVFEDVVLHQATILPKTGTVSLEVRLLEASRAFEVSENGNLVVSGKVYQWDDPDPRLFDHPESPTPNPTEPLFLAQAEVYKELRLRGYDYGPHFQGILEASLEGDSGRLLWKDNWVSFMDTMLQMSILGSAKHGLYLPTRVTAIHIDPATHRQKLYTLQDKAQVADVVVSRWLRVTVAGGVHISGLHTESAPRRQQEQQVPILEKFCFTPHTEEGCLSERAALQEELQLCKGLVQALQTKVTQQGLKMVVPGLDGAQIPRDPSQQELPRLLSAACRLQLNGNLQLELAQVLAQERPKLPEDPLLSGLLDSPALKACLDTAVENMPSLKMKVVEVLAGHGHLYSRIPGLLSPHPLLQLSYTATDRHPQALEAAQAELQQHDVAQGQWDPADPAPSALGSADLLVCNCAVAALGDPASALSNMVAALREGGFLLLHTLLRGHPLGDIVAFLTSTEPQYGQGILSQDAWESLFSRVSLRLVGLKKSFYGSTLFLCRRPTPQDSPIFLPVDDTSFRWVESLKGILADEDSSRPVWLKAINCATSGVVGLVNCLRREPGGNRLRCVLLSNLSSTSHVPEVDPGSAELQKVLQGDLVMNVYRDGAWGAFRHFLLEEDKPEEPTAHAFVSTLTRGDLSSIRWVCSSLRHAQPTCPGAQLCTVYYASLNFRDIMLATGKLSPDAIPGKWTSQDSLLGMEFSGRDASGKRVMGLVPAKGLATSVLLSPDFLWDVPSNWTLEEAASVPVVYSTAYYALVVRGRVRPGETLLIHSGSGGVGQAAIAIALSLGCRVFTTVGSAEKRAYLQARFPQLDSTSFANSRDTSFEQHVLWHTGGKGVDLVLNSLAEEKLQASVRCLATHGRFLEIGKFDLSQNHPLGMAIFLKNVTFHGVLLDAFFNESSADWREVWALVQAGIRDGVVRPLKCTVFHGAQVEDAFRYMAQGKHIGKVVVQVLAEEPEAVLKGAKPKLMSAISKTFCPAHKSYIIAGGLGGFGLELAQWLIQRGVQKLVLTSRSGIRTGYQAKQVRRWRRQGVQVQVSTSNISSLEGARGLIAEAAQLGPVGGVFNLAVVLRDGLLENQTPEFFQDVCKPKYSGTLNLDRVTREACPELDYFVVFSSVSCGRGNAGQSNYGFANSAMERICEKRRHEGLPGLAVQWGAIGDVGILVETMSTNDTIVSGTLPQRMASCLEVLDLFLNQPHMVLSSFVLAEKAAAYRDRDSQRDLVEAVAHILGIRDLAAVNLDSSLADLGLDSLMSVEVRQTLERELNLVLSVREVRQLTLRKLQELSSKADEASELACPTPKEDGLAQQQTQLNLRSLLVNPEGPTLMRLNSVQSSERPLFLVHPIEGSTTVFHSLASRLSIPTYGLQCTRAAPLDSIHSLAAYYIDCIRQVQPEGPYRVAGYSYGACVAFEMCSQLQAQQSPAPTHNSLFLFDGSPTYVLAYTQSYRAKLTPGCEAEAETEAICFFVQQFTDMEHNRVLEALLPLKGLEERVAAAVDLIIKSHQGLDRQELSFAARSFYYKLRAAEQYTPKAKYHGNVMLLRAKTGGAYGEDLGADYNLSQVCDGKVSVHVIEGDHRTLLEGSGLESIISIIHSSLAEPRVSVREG
Induced myeloid leukemia cell differentiation protein Mcl-1, sequence (Q07820 whole entry): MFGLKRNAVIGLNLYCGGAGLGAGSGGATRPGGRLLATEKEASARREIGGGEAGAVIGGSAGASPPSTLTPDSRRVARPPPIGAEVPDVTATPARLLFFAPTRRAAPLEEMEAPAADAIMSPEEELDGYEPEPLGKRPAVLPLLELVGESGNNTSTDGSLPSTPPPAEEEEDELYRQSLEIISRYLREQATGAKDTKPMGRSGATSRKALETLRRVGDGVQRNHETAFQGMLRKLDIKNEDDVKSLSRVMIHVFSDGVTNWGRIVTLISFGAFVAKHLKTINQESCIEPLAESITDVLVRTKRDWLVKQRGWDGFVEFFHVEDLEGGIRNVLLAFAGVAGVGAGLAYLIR

## COCC(C)n1c(C)cc(C(=O)COC(=O)c2n[nH]c3ccccc23)c1C (stereo not drawn)
Caspase-3
  IC50: 16.8 µM (active)
[1]
  IC50: 7.13 µM (active)
[2]
  IC50: 24.3 µM (active)
[3]
  IC50: 42.9 µM (active)

## CC(C)C(=O)N1CCN(c2nc3ccc(Cl)cc3s2)CC1
Cells [4]
  EC50: > 350 µM (not active)
Cells [5]
  EC50: > 350 µM (not active)

## O=C(CCN1C(=O)/C(=C\c2ccccc2Cl)SC1=S)Nc1cccnc1
Fatty acid synthase [6]
  IC50: 7.21 µM (active)
Fatty acid synthase [7]
  IC50: 6.84 µM (active)

## CCOc1ccc(/C=C2\SC(=S)N(CCCC(=O)NCCCN3CCOCC3)C2=O)cc1
BJ [8]
  EC50: 20.1 µM (active)
BJ [9]
  EC50: > 150 µM (not active)
BJ [10]
  EC50: > 150 µM (not active)
[11]
  EC50: > 150 µM (not active)
[12]
  IC50: > 80 µM (inactive)

## O=C(O)c1cccc(NC(=O)c2cccc(S(=O)(=O)Nc3cccc([N+](=O)[O-])c3)c2)c1
Caspase-3
  IC50: 19.2 µM (active)
[1]
  IC50: 5.29 µM (active)
[2]
  IC50: 9.02 µM (active)
[3]
  IC50: 11.9 µM (active)

## O=C(COC(=O)c1cc([N+](=O)[O-])ccc1NCCO)Nc1ccc2c(c1)OCO2
Fatty acid synthase [6]
  IC50: 2.69 µM (active)
Fatty acid synthase [7]
  IC50: 4.51 µM (active)

## O=C(CC1C(=O)NCCN1CCCc1ccccc1)NCCc1ccccc1Cl (stereo not drawn)
Cells [13]
  IC50: > 29.9 µM (inactive)
[14]
  EC50: 1.51 µM (active)
[15]
  IC50: 5.21 µM (active)
Cells [16]
  EC50: > 29.9 µM (inactive)

## Cc1nc(Cl)sc1C(=O)Nc1ccc2ccccc2c1
Caspase-3
  IC50: 22.7 µM (active)
[1]
  IC50: 7.54 µM (active)
[2]
  IC50: 23.9 µM (active)
[3]
  IC50: 29.8 µM (active)

## COc1ccccc1N1CN(CCc2ccccc2)CN=C1S
Cells [13]
  IC50: > 29.9 µM (inactive)
[14]
  EC50: 1.28 µM (active)
[15]
  IC50: 6.11 µM (active)
Cells [16]
  EC50: > 29.9 µM (inactive)

## [O-][Cl+3]([O-])([O-])[O-].c1ccc(-c2ccc(-c3n(-c4ccccn4)c4ccccc4[n+]3-c3ccccn3)cc2)cc1
[17]
  EC50: 0.832 µM (active)
[18]
  EC50: > 60 µM (not active)
[19]
  IC50: > 54 µM (not active)

## O=c1oc(-c2ccco2)nc2sc3c(c12)CCCCC3
Fatty acid synthase [6]
  IC50: 5.34 µM (active)
Fatty acid synthase [7]
  IC50: 3.45 µM (active)

## Cc1nc([N+](=O)[O-])c(Sc2nc3cc([N+](=O)[O-])ccc3[nH]2)n1Cc1ccccc1
[20]
  CC50: 12.6 µM (active)
[12]
  IC50: > 80 µM (inactive)

## O=C(c1cc(Br)ccc1Cl)N1CCC2(CC1)OCCO2
Cells [4]
  EC50: > 350 µM (not active)
Cells [5]
  EC50: 67 µM (active)

## O=C(NCN1CCc2ccccc2C1)c1cnccn1
Cells [13]
  IC50: > 29.9 µM (inactive)
[14]
  EC50: 2.14 µM (active)
[15]
  IC50: 8.03 µM (active)
Cells [16]
  EC50: > 29.9 µM (inactive)

## Cc1nnc(SC(C(=O)Nc2ccc(Cl)c([N+](=O)[O-])c2)c2ccccc2)nc1O (stereo not drawn)
Fatty acid synthase [6]
  IC50: 17.3 µM (active)
Fatty acid synthase [7]
  IC50: 15.9 µM (active)

## Cc1ccc(C(=O)CSc2nnc(COc3cc(C)cc(C)c3)o2)cc1
[12]
  IC50: > 80 µM (inactive)

## O=S(=O)(Cc1cc(Cl)nc(-c2ccncc2)n1)c1ccccc1
[19]
  IC50: 6.12 µM (active)

## CNC(=O)c1cccn(Cc2ccc(C(F)(F)F)cc2)c1=O
[12]
  IC50: > 80 µM (inactive)

## CCOC(=O)c1c(C)[nH]c(C)c1S(=O)(=O)N1c2ccccc2CC1C (stereo not drawn)
Cells [4]
  EC50: > 350 µM (not active)
Cells [5]
  EC50: > 350 µM (not active)

## O=C(CSC(=S)N1CCCC1)NCCc1ccccc1
Cells [13]
  IC50: > 29.9 µM (inactive)
[14]
  EC50: 1.96 µM (active)
[15]
  IC50: 1.19 µM (active)
Cells [16]
  EC50: > 29.9 µM (inactive)

## O=C(Cn1cc([N+](=O)[O-])ccc1=O)N1CCc2ccccc2C1
Fatty acid synthase [6]
  IC50: 3.74 µM (active)
Fatty acid synthase [7]
  IC50: 5.97 µM (active)

## COC(=O)c1ccc(COc2ccccc2/C=N/NS(=O)(=O)c2ccccc2)cc1
Cells [4]
  EC50: > 350 µM (not active)
Cells [5]
  EC50: > 350 µM (not active)

## O=C(N[C@H](C(=O)N1CCC[C@H]1C(=O)NCCc1ccccc1Cl)c1ccccc1)c1ccco1
Cells [13]
  IC50: > 29.9 µM (inactive)
[14]
  EC50: 10.3 µM (inactive)
[15]
  IC50: > 29.9 µM (inactive)
Cells [16]
  EC50: > 29.9 µM (inactive)

## OCCNc1nc(Nc2ccccc2)nc(Nc2ccccc2)n1
[19]
  IC50: 24.3 µM (not active)

## CC(C)c1ccc(/N=C/c2c(O)oc3ccccc3c2=O)cc1
Caspase-3
  IC50: 16.9 µM (active)
[1]
  IC50: 3.15 µM (active)
[2]
  IC50: 30.5 µM (active)
[3]
  IC50: 90.6 µM (active)
